Test results: patent publication US12077503B2, “Substituted cyclic amides and their use as herbicides” (FMC CORPORATION, priority 2015, dated 2024)

What was measured:
Assay type in all cases: in vivo
[1] = system: ivy-leaved morning glory (Ipomoea hederacea); assay: Test G Pre-Emergence Protocol; settings: Ipomoea, pre-emergence, 312 h, evaluated after 13 days; for pest or weed control at 15.625 g/ha: 15.625 g ai/ha, read-out: Morning-glory, Ivy-leaved damage rating (100=total damage to plant; 0=no damage to plant); for pest or weed control at 62.5 g/ha: 62.5 g ai/ha, 100=total damage to plant, 0=no damage to plant, read-out: plant damage rating, Morningglory, Ivy-leaved; for pest or weed control at 250 g/ha: 250 g ai/ha, read-out: Morningglory, Ivy-leaved damage rating (100=total damage to plant; 0=no damage to plant)
Method in brief: (§1)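 Pots of seeds in standard soil were grown for one day in a glasshouse (24/16 °C day/night, 14 h light, 65% humidity), then sprayed with compound in acetone/water 50:50 with 0.5% Tween 20 at 15.625, 62.5 or 250 g/ha. Damage was scored after 13 days on a 0 (none) to 100 (total) scale.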

[2] = system: redroot pigweed (Amaranthus retroflexus); assay: Test G Pre-Emergence Protocol; settings: Amaranthus retroflexus, pre-emergence, 312 h, evaluated after 13 days; for pest or weed control at 15.625 g/ha: 15.625 g ai/ha; for pest or weed control at 15.625 g/ha / pest or weed control at 250 g/ha: read-out: Pigweed, Redroot damage rating (100=total damage to plant; 0=no damage to plant); for pest or weed control at 62.5 g/ha: 62.5 g ai/ha, 100=total damage to plant, 0=no damage to plant, read-out: plant damage rating, Pigweed, Redroot; for pest or weed control at 250 g/ha: 250 g ai/ha
Method in brief: as §1

[3] = system: corn (Zea mays); assay: Test G Pre-Emergence Protocol; settings: Zea mays, pre-emergence, 312 h, evaluated after 13 days; for plant injury at 15.625 g/ha: 15.625 g ai/ha; for plant injury at 15.625 g/ha / plant injury at 250 g/ha: read-out: Corn damage rating (100=total damage to plant; 0=no damage to plant); for plant injury at 62.5 g/ha: 62.5 g ai/ha, 100=total damage to plant, 0=no damage to plant, read-out: plant damage rating, Corn; for plant injury at 250 g/ha: 250 g ai/ha
Method in brief: as §1

[4] = system: velvetleaf (Abutilon theophrasti); assay: Test G Pre-Emergence Protocol; settings: Abutilon theophrasti, pre-emergence, 312 h, evaluated after 13 days; for pest or weed control at 15.625 g/ha: 15.625 g ai/ha; for pest or weed control at 15.625 g/ha / pest or weed control at 250 g/ha: read-out: Velvetleaf damage rating (100=total damage to plant; 0=no damage to plant); for pest or weed control at 62.5 g/ha: 62.5 g ai/ha, 100=total damage to plant, 0=no damage to plant, read-out: plant damage rating, Velvetleaf; for pest or weed control at 250 g/ha: 250 g ai/ha
Method in brief: as §1

[5] = system: barnyardgrass (Echinochloa crus-galli); assay: Test G Pre-Emergence Protocol; settings: Echinochloa crus-galli, pre-emergence, 312 h, evaluated after 13 days; for pest or weed control at 15.625 g/ha: 15.625 g ai/ha, read-out: Barnyard grass damage rating (100=total damage to plant; 0=no damage to plant); for pest or weed control at 62.5 g/ha: 62.5 g ai/ha, 100=total damage to plant, 0=no damage to plant, read-out: plant damage rating, Barnyardgrass; for pest or weed control at 250 g/ha: 250 g ai/ha, read-out: Barnyardgrass damage rating (100=total damage to plant; 0=no damage to plant)
Method in brief: as §1

[6] = system: giant foxtail (Setaria faberi); assay: Test G Pre-Emergence Protocol; settings: Setaria faberi, pre-emergence, 312 h, evaluated after 13 days; for pest or weed control at 15.625 g/ha: 15.625 g ai/ha; for pest or weed control at 15.625 g/ha / pest or weed control at 250 g/ha: read-out: Foxtail, Giant damage rating (100=total damage to plant; 0=no damage to plant); for pest or weed control at 62.5 g/ha: 62.5 g ai/ha, 100=total damage to plant, 0=no damage to plant, read-out: plant damage rating, Foxtail, Giant; for pest or weed control at 250 g/ha: 250 g ai/ha
Method in brief: as §1

[7] = system: ivy-leaved morning glory (Ipomoea hederacea); assay: Test G Post-Emergence Protocol; settings: Ipomoea, post-emergence, 312 h; for pest or weed control at 15.625 g/ha: 15.625 g ai/ha, evaluated after 13 days (100=total damage to plant; 0=no damage to plant), read-out: Morningglory, Ivy-leaved damage rating; for pest or weed control at 62.5 g/ha: 62.5 g ai/ha, read-out: Morningglory, Ivy-leaved damage rating (100=total damage to plant; 0=no damage to plant); for pest or weed control at 62.5 g/ha / pest or weed control at 250 g/ha: evaluated after 13 days; for pest or weed control at 250 g/ha: 250 g ai/ha, read-out: damage to plant, Morningglory, Ivy-leaved (100=total damage to plant; 0=no damage to plant)
Method in brief: (§2)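 Pot-grown seedlings, 8 days old, raised in a glasshouse at 24/16 °C day/night with 14 h light and 65% humidity, were sprayed post-emergence with test compound in acetone/water (50:50) plus 0.5% Tween 20 at 15.625, 62.5 or 250 g/ha. Damage was scored visually 13 days later on a 0–100 scale (100 = total damage).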

[8] = system: redroot pigweed (Amaranthus retroflexus); assay: Test G Post-Emergence Protocol; settings: Amaranthus retroflexus, post-emergence, 312 h; for pest or weed control at 15.625 g/ha: 15.625 g ai/ha, evaluated after 13 days (100=total damage to plant; 0=no damage to plant), read-out: Pigweed, Redroot damage rating; for pest or weed control at 62.5 g/ha: 62.5 g ai/ha, read-out: Pigweed, Redroot damage rating (100=total damage to plant; 0=no damage to plant); for pest or weed control at 62.5 g/ha / pest or weed control at 250 g/ha: evaluated after 13 days; for pest or weed control at 250 g/ha: 250 g ai/ha, read-out: damage to plant, Pigweed, Redroot (100=total damage to plant; 0=no damage to plant)
Method in brief: as §2

[9] = system: corn (Zea mays); assay: Test G Post-Emergence Protocol; settings: Zea mays, post-emergence, 312 h; for plant injury at 15.625 g/ha: 15.625 g ai/ha, evaluated after 13 days (100=total damage to plant; 0=no damage to plant), read-out: Corn damage rating; for plant injury at 62.5 g/ha: 62.5 g ai/ha, read-out: Corn damage rating (100=total damage to plant; 0=no damage to plant); for plant injury at 62.5 g/ha / plant injury at 250 g/ha: evaluated after 13 days; for plant injury at 250 g/ha: 250 g ai/ha, read-out: damage to plant, Corn (100=total damage to plant; 0=no damage to plant)
Method in brief: as §2

[10] = system: velvetleaf (Abutilon theophrasti); assay: Test G Post-Emergence Protocol; settings: Abutilon theophrasti, post-emergence, 312 h; for pest or weed control at 15.625 g/ha: 15.625 g ai/ha, evaluated after 13 days (100=total damage to plant; 0=no damage to plant), read-out: Velvetleaf damage rating; for pest or weed control at 62.5 g/ha: 62.5 g ai/ha, read-out: Velvetleaf damage rating (100=total damage to plant; 0=no damage to plant); for pest or weed control at 62.5 g/ha / pest or weed control at 250 g/ha: evaluated after 13 days; for pest or weed control at 250 g/ha: 250 g ai/ha, read-out: damage to plant, Velvetleaf (100=total damage to plant; 0=no damage to plant)
Method in brief: as §2

[11] = system: barnyardgrass (Echinochloa crus-galli); assay: Test G Post-Emergence Protocol; settings: Echinochloa crus-galli, post-emergence, 312 h; for pest or weed control at 15.625 g/ha: 15.625 g ai/ha, evaluated after 13 days (100=total damage to plant; 0=no damage to plant), read-out: Barnyardgrass damage rating; for pest or weed control at 62.5 g/ha: 62.5 g ai/ha, read-out: Barnyardgrass damage rating (100=total damage to plant; 0=no damage to plant); for pest or weed control at 62.5 g/ha / pest or weed control at 250 g/ha: evaluated after 13 days; for pest or weed control at 250 g/ha: 250 g ai/ha, read-out: damage to plant, Barnyardgrass (100=total damage to plant; 0=no damage to plant)
Method in brief: as §2

[12] = system: giant foxtail (Setaria faberi); assay: Test G Post-Emergence Protocol; settings: Setaria faberi, post-emergence, 312 h; for pest or weed control at 15.625 g/ha: 15.625 g ai/ha, evaluated after 13 days (100=total damage to plant; 0=no damage to plant), read-out: Foxtail, Giant damage rating; for pest or weed control at 62.5 g/ha: 62.5 g ai/ha, read-out: Foxtail, Giant damage rating (100=total damage to plant; 0=no damage to plant); for pest or weed control at 62.5 g/ha / pest or weed control at 250 g/ha: evaluated after 13 days; for pest or weed control at 250 g/ha: 250 g ai/ha, read-out: damage to plant, Foxtail, Giant (100=total damage to plant; 0=no damage to plant)
Method in brief: as §2

Row | SMILES | pest or weed control at 15.625 g/ha [1] | pest or weed control at 62.5 g/ha [1] | pest or weed control at 250 g/ha [1] | pest or weed control at 15.625 g/ha [2] | pest or weed control at 62.5 g/ha [2] | pest or weed control at 250 g/ha [2] | plant injury at 15.625 g/ha [3] | plant injury at 62.5 g/ha [3] | plant injury at 250 g/ha [3] | pest or weed control at 15.625 g/ha [4] | pest or weed control at 62.5 g/ha [4] | pest or weed control at 250 g/ha [4] | pest or weed control at 15.625 g/ha [5] | pest or weed control at 62.5 g/ha [5] | pest or weed control at 250 g/ha [5] | pest or weed control at 15.625 g/ha [6] | pest or weed control at 62.5 g/ha [6] | pest or weed control at 250 g/ha [6] | pest or weed control at 15.625 g/ha [7] | pest or weed control at 62.5 g/ha [7] | other results
1 | CN1C[C@@H](c2ccc(C(F)(F)F)cc2)[C@H](C(=O)Nc2nccc(C(F)(F)F)n2)C1=O (racemic) [Compound 1547] | 0% | 0% | 0% | 0% | 0% | 0% | 0% | 0% | 0% | 0% | 0% | 0% | 0% | 0% | 0% | 0% | 0% | 0% | 0% | 0% | pest or weed control at 250 g/ha [7]: 0%; pest or weed control at 15.625 g/ha [8]: 0%; pest or weed control at 62.5 g/ha [8]: 0%; pest or weed control at 250 g/ha [8]: 0%; plant injury at 15.625 g/ha [9]: 0%; plant injury at 62.5 g/ha [9]: 0%; plant injury at 250 g/ha [9]: 0%; pest or weed control at 15.625 g/ha [10]: 0%; pest or weed control at 62.5 g/ha [10]: 0%; pest or weed control at 250 g/ha [10]: 0%; pest or weed control at 15.625 g/ha [11]: 0%; pest or weed control at 62.5 g/ha [11]: 0%; pest or weed control at 250 g/ha [11]: 0%; pest or weed control at 15.625 g/ha [12]: 0%; pest or weed control at 62.5 g/ha [12]: 0%; pest or weed control at 250 g/ha [12]: 0%
2 | Cc1nccc(NC(=O)[C@@H]2C(=O)N(C)C[C@H]2c2ccc(C(F)(F)F)cc2)n1 (racemic) [Compound 1641] | 0% | 0% | 0% | 0% | 0% | 0% | 0% | 0% | 0% | 0% | 0% | 0% | 0% | 0% | 0% | 0% | 0% | 0% | 0% | 0% | pest or weed control at 250 g/ha [7]: 0%; pest or weed control at 15.625 g/ha [8]: 0%; pest or weed control at 62.5 g/ha [8]: 0%; pest or weed control at 250 g/ha [8]: 0%; plant injury at 15.625 g/ha [9]: 0%; plant injury at 62.5 g/ha [9]: 0%; plant injury at 250 g/ha [9]: 0%; pest or weed control at 15.625 g/ha [10]: 0%; pest or weed control at 62.5 g/ha [10]: 0%; pest or weed control at 250 g/ha [10]: 0%; pest or weed control at 15.625 g/ha [11]: 0%; pest or weed control at 62.5 g/ha [11]: 0%; pest or weed control at 250 g/ha [11]: 0%; pest or weed control at 15.625 g/ha [12]: 0%; pest or weed control at 62.5 g/ha [12]: 0%; pest or weed control at 250 g/ha [12]: 0%
3 | Cc1cc(NC(=O)[C@@H]2C(=O)N(C)C[C@H]2c2ccc(C(F)(F)F)cc2)on1 (racemic) [Compound 1579] | 0% | 0% | 0% | 0% | 0% | 0% | 0% | 0% | 0% | 0% | 0% | 0% | 0% | 0% | 0% | 0% | 0% | 0% | 0% | 0% | pest or weed control at 250 g/ha [7]: 0%; pest or weed control at 15.625 g/ha [8]: 0%; pest or weed control at 62.5 g/ha [8]: 0%; pest or weed control at 250 g/ha [8]: 0%; plant injury at 15.625 g/ha [9]: 0%; plant injury at 62.5 g/ha [9]: 0%; plant injury at 250 g/ha [9]: 0%; pest or weed control at 15.625 g/ha [10]: 0%; pest or weed control at 62.5 g/ha [10]: 0%; pest or weed control at 250 g/ha [10]: 0%; pest or weed control at 15.625 g/ha [11]: 0%; pest or weed control at 62.5 g/ha [11]: 10%; pest or weed control at 250 g/ha [11]: 10%; pest or weed control at 15.625 g/ha [12]: 0%; pest or weed control at 62.5 g/ha [12]: 0%; pest or weed control at 250 g/ha [12]: 0%
